Measured values taken from ChEMBL document CHEMBL1949597, “Novel vitamin D receptor ligands bearing a spherical hydrophobic core structure--comparison of bicyclic hydrocarbon derivatives with boron cluster derivatives” (Bioorg Med Chem Lett, 2012).
Calls of active or inactive are those of the source. No cut-off for these calls is given here.

Target: T1, Vitamin D3 receptor (Homo sapiens) (UniProt P11473)
T1 sequence (whole entry): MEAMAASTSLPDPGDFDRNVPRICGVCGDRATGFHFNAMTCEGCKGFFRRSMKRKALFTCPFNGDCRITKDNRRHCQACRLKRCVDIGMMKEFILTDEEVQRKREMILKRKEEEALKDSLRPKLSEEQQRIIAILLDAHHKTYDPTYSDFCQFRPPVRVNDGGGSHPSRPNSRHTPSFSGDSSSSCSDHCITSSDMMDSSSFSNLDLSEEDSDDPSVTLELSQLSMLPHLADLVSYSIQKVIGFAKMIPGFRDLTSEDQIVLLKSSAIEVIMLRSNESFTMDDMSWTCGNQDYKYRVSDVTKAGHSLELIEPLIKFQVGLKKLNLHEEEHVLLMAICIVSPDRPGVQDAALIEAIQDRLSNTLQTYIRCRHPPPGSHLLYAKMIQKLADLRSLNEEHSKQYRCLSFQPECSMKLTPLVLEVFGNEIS
Experiment: Induction of vitamin D receptor-mediated differentiation of human HL60 cells at 10^-6 M by NBT reduction method
Assay type: cell-based
Conditions: HL-60

Activity: Active
SMILES: CCC(O)(CC)CCCCC12CCC(COCCC(O)CCO)(CC1)CC2 (stereo unspecified)
